Assay results: publication PMC6886798, “Expression of myeloid Src-family kinases is associated with poor prognosis in AML and influences Flt3-ITD kinase inhibitor acquired resistance” (PLoS ONE, 2019)

How the values were obtained:
Assay in all cases: KINOMEscan
Type in all cases: binding
Conditions in all cases: 1.0 µM
[1] = molecular target: T1, ABL1(Q252H)-nonphosphorylated (Homo sapiens, UniProt P00519, Q252H)
T1 construct: purchased Eurofins/DiscoverX KINOMEscan scanMAX
Protocol: (§1) Kinase retention to the immobilized ligand is then measured using quantitative real-time PCR for each kinase-specific DNA barcode.

[2] = molecular target: T2, ABL1(Y253F)-phosphorylated (Homo sapiens, UniProt P00519, Y253F)
T2 construct: purchased Eurofins/DiscoverX KINOMEscan scanMAX
Protocol: as §1

ALK = molecular target: T3, ALK (Homo sapiens, UniProt Q9UM73)
T3 construct: purchased Eurofins/DiscoverX KINOMEscan scanMAX
Protocol: as §1

ASK1 = molecular target: T4, ASK1 (Homo sapiens, UniProt Q99683)
T4 construct: purchased Eurofins/DiscoverX KINOMEscan scanMAX
Protocol: as §1

CAMK1B = molecular target: T5, CAMK1B (Homo sapiens, UniProt Q6P2M8)
T5 construct: purchased Eurofins/DiscoverX KINOMEscan scanMAX
Protocol: as §1

CDK3 = molecular target: T6, CDK3 (Homo sapiens, UniProt Q00526)
T6 construct: purchased Eurofins/DiscoverX KINOMEscan scanMAX
Protocol: as §1

CDK4-cyclinD1 = molecular target: T7, CDK4-cyclinD1 (Homo sapiens, UniProt P11802)
T7 construct: purchased Eurofins/DiscoverX KINOMEscan scanMAX
Protocol: as §1

CDKL1 = molecular target: T8, CDKL1 (Homo sapiens, UniProt Q00532)
T8 construct: purchased Eurofins/DiscoverX KINOMEscan scanMAX
Protocol: as §1

CSF1R-autoinhibited = molecular target: T9, CSF1R-autoinhibited (Homo sapiens, UniProt P07333)
T9 construct: purchased Eurofins/DiscoverX KINOMEscan scanMAX
Protocol: as §1

CSNK1G3 = molecular target: T10, CSNK1G3 (Homo sapiens, UniProt Q9Y6M4)
T10 construct: purchased Eurofins/DiscoverX KINOMEscan scanMAX
Protocol: as §1

DAPK2 = molecular target: T11, DAPK2 (Homo sapiens, UniProt Q9UIK4)
T11 construct: purchased Eurofins/DiscoverX KINOMEscan scanMAX
Protocol: as §1

EPHA1 = molecular target: T12, EPHA1 (Homo sapiens, UniProt P21709)
T12 construct: purchased Eurofins/DiscoverX KINOMEscan scanMAX
Protocol: as §1

EPHA7 = molecular target: T13, EPHA7 (Homo sapiens, UniProt Q15375)
T13 construct: purchased Eurofins/DiscoverX KINOMEscan scanMAX
Protocol: as §1

FGR = molecular target: T14, FGR (Homo sapiens, UniProt P09769)
T14 construct: purchased Eurofins/DiscoverX KINOMEscan scanMAX
Protocol: as §1

FYN = molecular target: T15, FYN (Homo sapiens, UniProt P06241)
T15 construct: purchased Eurofins/DiscoverX KINOMEscan scanMAX
Protocol: as §1

GAK = molecular target: T16, GAK (Homo sapiens, UniProt O14976)
T16 construct: purchased Eurofins/DiscoverX KINOMEscan scanMAX
Protocol: as §1

GRK2 = molecular target: T17, GRK2 (Homo sapiens, UniProt P25098)
T17 construct: purchased Eurofins/DiscoverX KINOMEscan scanMAX
Protocol: as §1

HASPIN = molecular target: T18, HASPIN (Homo sapiens, UniProt Q8TF76)
T18 construct: purchased Eurofins/DiscoverX KINOMEscan scanMAX
Protocol: as §1

LOK = molecular target: T19, LOK (Homo sapiens, UniProt O94804)
T19 construct: purchased Eurofins/DiscoverX KINOMEscan scanMAX
Protocol: as §1

LRRK2 = molecular target: T20, LRRK2 (Homo sapiens, UniProt Q5S007)
T20 construct: purchased Eurofins/DiscoverX KINOMEscan scanMAX
Protocol: as §1

MARK2 = molecular target: T21, MARK2 (Homo sapiens, UniProt Q7KZI7)
T21 construct: purchased Eurofins/DiscoverX KINOMEscan scanMAX
Protocol: as §1

MEK5 = molecular target: T22, MEK5 (Homo sapiens, UniProt Q13163)
T22 construct: purchased Eurofins/DiscoverX KINOMEscan scanMAX
Protocol: as §1

MET(M1250T) = molecular target: T23, MET(M1250T) (Homo sapiens, UniProt P08581, M1250T)
T23 construct: purchased Eurofins/DiscoverX KINOMEscan scanMAX
Protocol: as §1

MST1 = molecular target: T24, MST1 (Homo sapiens, UniProt Q13043)
T24 construct: purchased Eurofins/DiscoverX KINOMEscan scanMAX
Protocol: as §1

NDR2 = molecular target: T25, NDR2 (Homo sapiens, UniProt Q9Y2H1)
T25 construct: purchased Eurofins/DiscoverX KINOMEscan scanMAX
Protocol: as §1

NEK1 = molecular target: T26, NEK1 (Homo sapiens, UniProt Q96PY6)
T26 construct: purchased Eurofins/DiscoverX KINOMEscan scanMAX
Protocol: as §1

NEK2 = molecular target: T27, NEK2 (Homo sapiens, UniProt P51955)
T27 construct: purchased Eurofins/DiscoverX KINOMEscan scanMAX
Protocol: as §1

PAK6 = molecular target: T28, PAK6 (Homo sapiens, UniProt Q9NQU5)
T28 construct: purchased Eurofins/DiscoverX KINOMEscan scanMAX
Protocol: as §1

PFTAIRE2 = molecular target: T29, PFTAIRE2 (Homo sapiens, UniProt Q96Q40)
T29 construct: purchased Eurofins/DiscoverX KINOMEscan scanMAX
Protocol: as §1

PHKG2 = molecular target: T30, PHKG2 (Homo sapiens, UniProt P15735)
T30 construct: purchased Eurofins/DiscoverX KINOMEscan scanMAX
Protocol: as §1

PIKFYVE = molecular target: T31, PIKFYVE (Homo sapiens, UniProt Q9Y2I7)
T31 construct: purchased Eurofins/DiscoverX KINOMEscan scanMAX
Protocol: as §1

PIM2 = molecular target: T32, PIM2 (Homo sapiens, UniProt Q9P1W9)
T32 construct: purchased Eurofins/DiscoverX KINOMEscan scanMAX
Protocol: as §1

PIP5K2B = molecular target: T33, PIP5K2B (Homo sapiens, UniProt P78356)
T33 construct: purchased Eurofins/DiscoverX KINOMEscan scanMAX
Protocol: as §1

PLK1 = molecular target: T34, PLK1 (Homo sapiens, UniProt P53350)
T34 construct: purchased Eurofins/DiscoverX KINOMEscan scanMAX
Protocol: as §1

PRKCQ = molecular target: T35, PRKCQ (Homo sapiens, UniProt Q04759)
T35 construct: purchased Eurofins/DiscoverX KINOMEscan scanMAX
Protocol: as §1

PRKD3 = molecular target: T36, PRKD3 (Homo sapiens, UniProt O94806)
T36 construct: purchased Eurofins/DiscoverX KINOMEscan scanMAX
Protocol: as §1

RET(V804L) = molecular target: T37, RET(V804L) (Homo sapiens, UniProt P07949, V804L)
T37 construct: purchased Eurofins/DiscoverX KINOMEscan scanMAX
Protocol: as §1

RIOK3 = molecular target: T38, RIOK3 (Homo sapiens, UniProt O14730)
T38 construct: purchased Eurofins/DiscoverX KINOMEscan scanMAX
Protocol: as §1

RIPK5 = molecular target: T39, RIPK5 (Homo sapiens, UniProt Q6XUX3)
T39 construct: purchased Eurofins/DiscoverX KINOMEscan scanMAX
Protocol: as §1

SIK2 = molecular target: T40, SIK2 (Homo sapiens, UniProt Q9H0K1)
T40 construct: purchased Eurofins/DiscoverX KINOMEscan scanMAX
Protocol: as §1

WNK2 = molecular target: T41, WNK2 (Homo sapiens, UniProt Q9Y3S1)
T41 construct: DNA tag (qPCR barcode); purchased Eurofins/DiscoverX KINOMEscan scanMAX
Protocol: as §1

YANK2 = molecular target: T42, YANK2 (Homo sapiens, UniProt Q9NY57)
T42 construct: purchased Eurofins/DiscoverX (KINOMEscan scanMAX service)
Protocol: as §1

p38-gamma = molecular target: T43, p38-gamma (Homo sapiens, UniProt P53778)
T43 construct: purchased Eurofins/DiscoverX KINOMEscan scanMAX
Protocol: as §1

T43 sequence (P53778 whole entry): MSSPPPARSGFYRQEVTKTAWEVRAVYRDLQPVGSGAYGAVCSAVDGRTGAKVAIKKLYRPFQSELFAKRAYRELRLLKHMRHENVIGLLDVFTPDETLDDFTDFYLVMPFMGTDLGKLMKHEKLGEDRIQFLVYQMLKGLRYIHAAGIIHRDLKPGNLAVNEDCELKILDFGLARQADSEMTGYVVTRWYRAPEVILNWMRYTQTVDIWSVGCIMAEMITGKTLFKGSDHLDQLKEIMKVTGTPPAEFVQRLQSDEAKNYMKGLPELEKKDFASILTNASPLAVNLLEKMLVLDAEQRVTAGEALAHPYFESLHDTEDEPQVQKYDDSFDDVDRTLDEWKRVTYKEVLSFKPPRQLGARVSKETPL
T15 sequence (P06241 whole entry): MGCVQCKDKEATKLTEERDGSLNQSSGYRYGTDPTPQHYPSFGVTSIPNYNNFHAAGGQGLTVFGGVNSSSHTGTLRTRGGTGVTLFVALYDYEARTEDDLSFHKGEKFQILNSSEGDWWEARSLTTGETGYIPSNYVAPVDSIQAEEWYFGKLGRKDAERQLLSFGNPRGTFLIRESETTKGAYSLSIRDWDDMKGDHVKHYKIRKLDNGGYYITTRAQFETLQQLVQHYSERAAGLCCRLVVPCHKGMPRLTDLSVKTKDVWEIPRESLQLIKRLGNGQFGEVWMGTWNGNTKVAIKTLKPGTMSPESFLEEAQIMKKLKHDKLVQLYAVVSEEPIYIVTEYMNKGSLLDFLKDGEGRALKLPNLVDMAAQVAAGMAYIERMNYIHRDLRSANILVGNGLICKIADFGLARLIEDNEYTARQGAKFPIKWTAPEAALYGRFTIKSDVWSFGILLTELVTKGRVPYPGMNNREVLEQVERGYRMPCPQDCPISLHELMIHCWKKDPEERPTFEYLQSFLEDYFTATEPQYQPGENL
T13 sequence (Q15375 28-998): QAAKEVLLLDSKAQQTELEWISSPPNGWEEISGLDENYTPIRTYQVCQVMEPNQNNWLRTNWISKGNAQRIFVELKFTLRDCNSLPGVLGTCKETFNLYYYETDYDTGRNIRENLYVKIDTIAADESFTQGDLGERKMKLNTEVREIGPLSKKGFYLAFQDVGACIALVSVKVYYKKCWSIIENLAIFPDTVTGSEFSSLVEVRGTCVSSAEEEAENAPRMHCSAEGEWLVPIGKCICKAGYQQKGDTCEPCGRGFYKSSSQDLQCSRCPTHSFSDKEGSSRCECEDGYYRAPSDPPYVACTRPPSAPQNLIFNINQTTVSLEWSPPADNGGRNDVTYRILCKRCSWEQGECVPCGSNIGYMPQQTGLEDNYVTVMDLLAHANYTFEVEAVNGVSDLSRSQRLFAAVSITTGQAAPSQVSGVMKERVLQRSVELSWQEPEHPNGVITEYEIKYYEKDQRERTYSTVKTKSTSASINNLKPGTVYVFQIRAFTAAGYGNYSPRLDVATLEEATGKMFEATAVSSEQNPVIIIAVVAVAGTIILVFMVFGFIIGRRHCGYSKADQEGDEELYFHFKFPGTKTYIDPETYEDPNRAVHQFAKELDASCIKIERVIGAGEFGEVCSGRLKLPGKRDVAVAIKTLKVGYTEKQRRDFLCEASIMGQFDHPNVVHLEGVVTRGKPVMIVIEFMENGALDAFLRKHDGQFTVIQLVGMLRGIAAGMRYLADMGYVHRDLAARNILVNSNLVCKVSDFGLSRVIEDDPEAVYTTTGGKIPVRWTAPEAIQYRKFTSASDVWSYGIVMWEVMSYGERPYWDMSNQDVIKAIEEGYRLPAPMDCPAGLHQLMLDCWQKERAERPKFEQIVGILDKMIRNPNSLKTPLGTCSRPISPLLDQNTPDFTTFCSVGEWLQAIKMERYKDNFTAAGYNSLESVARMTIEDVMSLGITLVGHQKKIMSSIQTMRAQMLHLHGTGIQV
T4 sequence (Q99683 whole entry): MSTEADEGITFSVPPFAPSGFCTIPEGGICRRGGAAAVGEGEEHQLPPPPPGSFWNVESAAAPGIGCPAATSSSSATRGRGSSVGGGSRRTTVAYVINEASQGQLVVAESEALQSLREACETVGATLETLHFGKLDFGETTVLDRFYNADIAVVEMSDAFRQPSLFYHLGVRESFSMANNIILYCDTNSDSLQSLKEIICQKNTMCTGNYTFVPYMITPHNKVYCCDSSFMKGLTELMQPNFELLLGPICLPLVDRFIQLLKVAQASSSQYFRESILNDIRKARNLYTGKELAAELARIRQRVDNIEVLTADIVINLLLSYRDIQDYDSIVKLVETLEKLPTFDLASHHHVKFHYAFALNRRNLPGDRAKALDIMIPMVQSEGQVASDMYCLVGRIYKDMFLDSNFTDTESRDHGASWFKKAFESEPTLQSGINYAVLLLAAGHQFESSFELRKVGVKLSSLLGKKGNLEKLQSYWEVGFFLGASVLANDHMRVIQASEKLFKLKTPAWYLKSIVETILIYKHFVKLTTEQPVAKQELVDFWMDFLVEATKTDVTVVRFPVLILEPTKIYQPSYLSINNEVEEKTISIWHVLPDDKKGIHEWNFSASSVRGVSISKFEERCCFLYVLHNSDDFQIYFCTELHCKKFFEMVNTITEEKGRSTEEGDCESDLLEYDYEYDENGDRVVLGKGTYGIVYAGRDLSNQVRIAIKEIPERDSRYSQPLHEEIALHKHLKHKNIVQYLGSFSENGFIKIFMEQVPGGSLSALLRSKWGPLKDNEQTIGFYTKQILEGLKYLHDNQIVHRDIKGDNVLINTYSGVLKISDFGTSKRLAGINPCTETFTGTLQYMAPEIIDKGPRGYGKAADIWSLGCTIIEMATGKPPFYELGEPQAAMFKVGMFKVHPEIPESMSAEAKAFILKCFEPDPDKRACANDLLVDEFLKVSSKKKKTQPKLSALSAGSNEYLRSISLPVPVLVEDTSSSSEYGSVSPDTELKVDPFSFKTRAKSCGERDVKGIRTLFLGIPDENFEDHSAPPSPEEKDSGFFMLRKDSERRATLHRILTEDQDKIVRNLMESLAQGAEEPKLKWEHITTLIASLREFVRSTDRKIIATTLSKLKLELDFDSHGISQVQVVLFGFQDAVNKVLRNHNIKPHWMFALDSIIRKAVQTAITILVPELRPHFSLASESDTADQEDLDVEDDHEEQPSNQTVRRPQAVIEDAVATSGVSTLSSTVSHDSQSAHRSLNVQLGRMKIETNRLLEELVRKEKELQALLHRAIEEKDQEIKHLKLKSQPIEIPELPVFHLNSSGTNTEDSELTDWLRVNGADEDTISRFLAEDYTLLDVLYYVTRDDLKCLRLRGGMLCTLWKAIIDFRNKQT
T42 sequence (Q9NY57 whole entry): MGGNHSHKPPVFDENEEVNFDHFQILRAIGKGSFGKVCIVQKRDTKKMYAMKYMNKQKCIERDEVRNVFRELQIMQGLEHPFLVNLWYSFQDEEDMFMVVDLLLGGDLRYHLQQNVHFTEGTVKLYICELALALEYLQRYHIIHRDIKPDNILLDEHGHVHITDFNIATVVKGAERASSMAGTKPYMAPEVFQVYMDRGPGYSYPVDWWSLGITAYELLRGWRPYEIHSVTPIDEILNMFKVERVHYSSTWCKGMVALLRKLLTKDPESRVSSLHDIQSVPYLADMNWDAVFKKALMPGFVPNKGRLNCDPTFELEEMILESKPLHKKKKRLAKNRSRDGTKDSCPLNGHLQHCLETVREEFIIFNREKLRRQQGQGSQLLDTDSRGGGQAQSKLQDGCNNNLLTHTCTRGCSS
T24 sequence (Q13043 whole entry): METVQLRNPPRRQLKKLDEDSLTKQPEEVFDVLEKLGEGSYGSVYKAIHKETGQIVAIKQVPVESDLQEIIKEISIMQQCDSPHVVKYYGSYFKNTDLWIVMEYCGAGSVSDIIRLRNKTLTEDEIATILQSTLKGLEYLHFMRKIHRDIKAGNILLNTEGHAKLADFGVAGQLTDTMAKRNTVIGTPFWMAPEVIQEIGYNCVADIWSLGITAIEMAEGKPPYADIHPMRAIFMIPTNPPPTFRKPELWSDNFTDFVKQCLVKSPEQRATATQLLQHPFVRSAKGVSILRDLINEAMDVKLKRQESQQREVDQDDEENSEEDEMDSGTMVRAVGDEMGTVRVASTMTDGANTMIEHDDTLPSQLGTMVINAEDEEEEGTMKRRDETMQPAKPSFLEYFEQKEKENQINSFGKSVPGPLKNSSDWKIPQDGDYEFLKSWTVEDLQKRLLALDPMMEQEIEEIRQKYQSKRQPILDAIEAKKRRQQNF
T36 sequence (O94806 whole entry): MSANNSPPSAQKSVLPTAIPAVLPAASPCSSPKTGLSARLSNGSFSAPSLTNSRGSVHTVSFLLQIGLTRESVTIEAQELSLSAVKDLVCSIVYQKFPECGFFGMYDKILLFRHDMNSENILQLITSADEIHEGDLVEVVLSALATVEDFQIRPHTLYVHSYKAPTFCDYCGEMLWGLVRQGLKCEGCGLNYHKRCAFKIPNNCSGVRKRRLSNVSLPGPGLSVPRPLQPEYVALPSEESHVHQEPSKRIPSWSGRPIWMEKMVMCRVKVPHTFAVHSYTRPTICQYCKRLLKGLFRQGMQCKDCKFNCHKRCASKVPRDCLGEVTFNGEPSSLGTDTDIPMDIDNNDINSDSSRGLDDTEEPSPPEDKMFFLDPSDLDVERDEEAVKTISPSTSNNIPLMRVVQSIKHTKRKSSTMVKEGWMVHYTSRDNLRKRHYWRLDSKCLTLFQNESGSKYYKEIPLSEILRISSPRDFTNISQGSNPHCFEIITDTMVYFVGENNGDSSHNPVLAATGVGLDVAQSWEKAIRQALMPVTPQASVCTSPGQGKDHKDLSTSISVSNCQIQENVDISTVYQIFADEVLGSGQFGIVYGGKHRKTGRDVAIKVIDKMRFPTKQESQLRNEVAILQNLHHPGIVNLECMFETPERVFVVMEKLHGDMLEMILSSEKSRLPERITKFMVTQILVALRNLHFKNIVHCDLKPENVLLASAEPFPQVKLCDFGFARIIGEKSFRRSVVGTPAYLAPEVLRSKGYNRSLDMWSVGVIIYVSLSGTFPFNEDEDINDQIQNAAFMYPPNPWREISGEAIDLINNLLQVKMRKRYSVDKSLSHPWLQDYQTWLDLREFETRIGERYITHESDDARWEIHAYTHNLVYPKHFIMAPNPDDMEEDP

For CN1CCN(C2CCC(n3cc(-c4ccc(Oc5ccccc5)cc4)c4c(N)ncnc43)CC2)CC1 (stereo not shown) [A-419259], the “% Control” value [1] was 0.85%, the “% Control” value [2] was 0.35% and the “% Control” value (ALK) was 29%. For the same compound, the “% Control” value (ASK1) was 100%, the “% Control” value (CAMK1B) was 100% and the “% Control” value (CDK3) was 99%. For the same compound, the “% Control” value (CDK4-cyclinD1) was 27%, the “% Control” value (CDKL1) was 99% and the “% Control” value (CSF1R-autoinhibited) was 57%. For the same compound, the “% Control” value (CSNK1G3) was 100%, the “% Control” value (DAPK2) was 98% and the “% Control” value (EPHA1) was 58%. For the same compound, the “% Control” value (EPHA7) was 100%, the “% Control” value (FGR) was 0.85% and the “% Control” value (FYN) was 5.1%. The “% Control” value (GAK) was 69%, the “% Control” value (GRK2) was 100% and the “% Control” value (HASPIN) was 70%. For the same compound, the “% Control” value (LOK) was 20%, the “% Control” value (LRRK2) was 98% and the “% Control” value (MARK2) was 82%. For the same compound, the “% Control” value (MEK5) was 0.25%, the “% Control” value (MET(M1250T)) was 59% and the “% Control” value (MST1) was 34%. For the same compound, the “% Control” value (NDR2) was 80%, the “% Control” value (NEK1) was 100% and the “% Control” value (NEK2) was 81%. The “% Control” value (PAK6) was 84%, the “% Control” value (PFTAIRE2) was 89% and the “% Control” value (PHKG2) was 100%. For the same compound, the “% Control” value (PIKFYVE) was 78%, the “% Control” value (PIM2) was 100% and the “% Control” value (PIP5K2B) was 94%. For the same compound, the “% Control” value (PLK1) was 100%, the “% Control” value (PRKCQ) was 66% and the “% Control” value (PRKD3) was 17%. For the same compound, the “% Control” value (RET(V804L)) was 24%, the “% Control” value (RIOK3) was 64% and the “% Control” value (RIPK5) was 7.1%. For the same compound, the “% Control” value (SIK2) was 19%, the “% Control” value (WNK2) was 67% and the “% Control” value (YANK2) was 30%. For the same compound, the “% Control” value (p38-gamma) was 100%.
